Assay results published in US8466107B2, “Fibrin-binding peptides and conjugates thereof” (Bracco Imaging SpA, priority 2006, dated 2013).
Bridge positions count the residues as written; N and C are the ends. Square brackets hold non-standard residues; d marks the D form. Peptide text beside a SMILES is read from it. * marks the point of attachment. 5FAM = O=C1OC2(c3ccc(O)cc3Oc3cc(O)ccc32)c2ccc(C(=O)*)cc21; Phe(3,4-F2) = N[C@@H](Cc1ccc(F)c(F)c1)C(=O)O; Phe(4-F) = N[C@@H](Cc1ccc(F)cc1)C(=O)O; Cha = N[C@@H](CC1CCCCC1)C(=O)O

Molecular target: DDE (fibrin-derived polypeptide) (Homo sapiens, UniProt P02671+P02675+P02679)
Sequence (P02671 124-216): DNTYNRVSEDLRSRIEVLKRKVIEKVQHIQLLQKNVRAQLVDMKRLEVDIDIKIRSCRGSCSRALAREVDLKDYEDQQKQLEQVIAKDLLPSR
Sequence (P02675 164-491): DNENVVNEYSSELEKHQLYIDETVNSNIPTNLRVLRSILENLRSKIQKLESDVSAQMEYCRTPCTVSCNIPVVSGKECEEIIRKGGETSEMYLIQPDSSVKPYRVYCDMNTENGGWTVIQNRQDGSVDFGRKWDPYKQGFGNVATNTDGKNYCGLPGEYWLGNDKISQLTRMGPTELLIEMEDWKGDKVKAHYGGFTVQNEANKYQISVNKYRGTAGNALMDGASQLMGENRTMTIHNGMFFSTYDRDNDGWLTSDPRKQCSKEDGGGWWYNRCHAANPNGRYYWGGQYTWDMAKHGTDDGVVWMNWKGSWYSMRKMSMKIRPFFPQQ
Sequence (P02679 114-432): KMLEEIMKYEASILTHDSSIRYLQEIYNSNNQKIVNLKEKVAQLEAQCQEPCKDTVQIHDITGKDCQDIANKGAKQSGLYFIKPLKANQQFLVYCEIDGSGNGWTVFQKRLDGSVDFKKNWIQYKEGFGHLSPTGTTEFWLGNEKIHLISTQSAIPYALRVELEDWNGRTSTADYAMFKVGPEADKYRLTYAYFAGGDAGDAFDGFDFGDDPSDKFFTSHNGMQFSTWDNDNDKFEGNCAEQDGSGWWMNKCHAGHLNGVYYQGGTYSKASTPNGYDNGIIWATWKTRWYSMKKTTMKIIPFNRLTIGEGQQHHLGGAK
Sequence (P02671 36-97): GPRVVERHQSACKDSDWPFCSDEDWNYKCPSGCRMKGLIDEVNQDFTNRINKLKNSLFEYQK
Sequence (P02675 45-152): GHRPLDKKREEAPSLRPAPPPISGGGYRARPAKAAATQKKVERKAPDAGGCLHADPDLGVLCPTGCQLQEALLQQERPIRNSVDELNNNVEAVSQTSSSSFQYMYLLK
Sequence (P02679 27-88): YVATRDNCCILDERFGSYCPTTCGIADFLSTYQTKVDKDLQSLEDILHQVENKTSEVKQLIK
Test: Direct binding fluorescence polarization (FP) assay using 5-carboxyfluorescein labeled peptides
Details: 20 nM CF5-labeled peptide, serial dilutions of DDE, anisotropy read at 485 nm; read-out: KD (μM) Direct Binding (n = 2)
Method: Assay of Fibrin Binding Peptides by Direct Binding Fluorescence Polarization (FP) Procedure using 5-Carboxyfluoresein Labeled Peptides
Protocol • 1. Prepare 1 mL of 40 nM solution of 5-carboxyfluorescein-labeled peptide in HEPES dilution buffer (HDB) with 0.01% Tween. • HDB (10 mM HEPES, 150 mM […], 2 mM CaCl2) • 2. Dilute the 40 nM solution to obtain 1 ml of a 20 nM solution of the test 5-carboxyfluorescein-labeled peptide. • 3. Prepare a solution of DDE at a concentration that will be approximately 5-10 fold greater than the expected KD. For the described assay an 8 μM concentration of DDE was prepared. • 4. Mix equal volumes of the DDE solution with the 40 nM peptide solution. • 5. Prepare serial dilutions of DDE in a solution consisting of the binding buffer with 0.01% Tween20 and 20 nM of the 5-carboxyfluorescein-labeled peptide. • 6. Make dilutions as shown in the following table in a Labsystems 384-well microplate and mix by repeated aspiration and dispensing of the solution into the wells. • 7. Centrifuge the plate at 2000 RPM for 5 minutes to remove air pockets in the wells. • 8. Read in Tecan Polarion Plate Reader at 485 nm to obtain the anisotropy value.
The anisotropy (in mP—millipolarization units) vs the logarithm of the concentration (micromoles/liter) of the receptor concentration is graphed. The dissociation constant is obtained at the midpoint of the curve whose extrema are Afree and Abound where Afree is the anisotropy of the free peptide and Abound is the anisotropy of the fully bound peptide. The theory, methods of operation and mathematical analysis is described in, for example, the following reference: Fluorescence Polarization Technical Resource Guide Technical Resource Guide 4th Edn. Invitrogen Corporation•501 Charmany Drive•Madison, Wis. 53719 USA. Particularly, the mathematical analysis of the data and obtaining binding constants is described in Chapter 8: Analysis of FP Binding Data pp 8-2-8-7.

Row | Kd [µM] | SMILES
1 | 0.47 | CC(=O)N[C@@H](CO)C(=O)NCC(=O)N[C@@H](CO)C(=O)NCC(=O)N[C@@H](CO)C(=O)NCC(=O)N[C@@H](CO)C(=O)NCC(=O)N[C@@H](Cc1c[nH]c2ccccc12)C(=O)N[C@@H](CCC(N)=O)C(=O)N1CCC[C@H]1C(=O)N[C@H]1CSSC[C@@H](C(=O)N[C@@H](Cc2c[nH]c3ccccc23)C(=O)N[C@@H](CC(=O)O)C(=O)N2CCC[C@H]2C(=O)NCC(=O)NCC(=O)NCC(=O)N[C@@H](CCCCNC(=O)c2ccc3c(c2)C(=O)OC32c3ccc(O)cc3Oc3cc(O)ccc32)C(N)=O)NC(=O)[C@H](Cc2ccccc2)NC(=O)[C@H]([C@@H](C)O)NC(=O)[C@H](Cc2c[nH]c3ccccc23)NC(=O)[C@H](CO)NC(=O)[C@H](CCC(=O)O)NC(=O)[C@H](Cc2c[nH]c3ccccc23)NC(=O)[C@@H]2CCCN2C1=O [Seq024-CF5] (Ac-SGSGSGSGWQPCPWESWTFCWDPGGGK(5FAM)-NH2; disulfide 12-20)
2 | 0.71 | CC(=O)N[C@@H](CCCCN)C(=O)N[C@@H](CCCCN)C(=O)NCC(=O)N[C@@H](Cc1c[nH]c2ccccc12)C(=O)N[C@@H](CCC(N)=O)C(=O)N1CCC[C@H]1C(=O)N[C@H]1CSSC[C@@H](C(=O)N[C@@H](Cc2c[nH]c3ccccc23)C(=O)N[C@@H](CC(=O)O)C(=O)N2CCC[C@H]2C(=O)NCC(=O)NCC(=O)NCC(=O)N[C@@H](CCCCNC(=O)c2ccc3c(c2)C(=O)OC32c3ccc(O)cc3Oc3cc(O)ccc32)C(N)=O)NC(=O)[C@H](Cc2ccccc2)NC(=O)[C@H]([C@@H](C)O)NC(=O)[C@H](Cc2c[nH]c3ccccc23)NC(=O)[C@H](CO)NC(=O)[C@H](CCC(=O)O)NC(=O)[C@H](Cc2c[nH]c3ccccc23)NC(=O)[C@@H]2CCCN2C1=O [Seq025-CF5] (Ac-KKGWQPCPWESWTFCWDPGGGK(5FAM)-NH2; disulfide 7-15)
3 | 0.76 | CC(=O)N[C@@H](CCCCN)C(=O)NCC(=O)N[C@@H](CCCCN)C(=O)NCC(=O)N[C@@H](CCCCN)C(=O)NCC(=O)N[C@@H](Cc1c[nH]c2ccccc12)C(=O)N[C@@H](CCC(N)=O)C(=O)N1CCC[C@H]1C(=O)N[C@H]1CSSC[C@@H](C(=O)N[C@@H](Cc2c[nH]c3ccccc23)C(=O)N[C@@H](CC(=O)O)C(=O)N2CCC[C@H]2C(=O)NCC(=O)NCC(=O)NCC(=O)N[C@@H](CCCCNC(=O)c2ccc3c(c2)C(=O)OC32c3ccc(O)cc3Oc3cc(O)ccc32)C(N)=O)NC(=O)[C@H](Cc2ccccc2)NC(=O)[C@H]([C@@H](C)O)NC(=O)[C@H](Cc2c[nH]c3ccccc23)NC(=O)[C@H](CO)NC(=O)[C@H](CCC(=O)O)NC(=O)[C@H](Cc2c[nH]c3ccccc23)NC(=O)[C@@H]2CCCN2C1=O [Seq026-CF5] (Ac-KGKGKGWQPCPWESWTFCWDPGGGK(5FAM)-NH2; disulfide 10-18)

Further lines, the compound ahead of its results:

Row | SMILES | Kd [µM]
4 | CC(=O)N[C@@H](Cc1c[nH]c2ccccc12)C(=O)N[C@@H](CCC(N)=O)C(=O)N1CCC[C@H]1C(=O)N[C@H]1CSSC[C@@H](C(=O)N[C@@H](Cc2c[nH]c3ccccc23)C(=O)N[C@@H](CC(=O)O)C(=O)N2CCC[C@H]2C(=O)NCC(=O)NCC(=O)NCC(=O)N[C@@H](CCCCNC(=O)c2ccc3c(c2)C(=O)OC32c3ccc(O)cc3Oc3cc(O)ccc32)C(N)=O)NC(=O)[C@H](CC2CCCCC2)NC(=O)[C@H]([C@@H](C)O)NC(=O)[C@H](Cc2c[nH]c3ccccc23)NC(=O)[C@H](CO)NC(=O)[C@H](CCC(=O)O)NC(=O)[C@H](Cc2c[nH]c3ccccc23)NC(=O)[C@@H]2CCCN2C1=O [Seq018-CF5, Ac-WQPC*PWESWT-Cha-C*WDPGGGK(CF5)-NH2] (Ac-WQPCPWESWT[Cha]CWDPGGGK(5FAM)-NH2; disulfide 4-12) | 0.2
5 | CC(=O)N[C@@H](Cc1c[nH]c2ccccc12)C(=O)N[C@@H](CCC(N)=O)C(=O)N1CCC[C@H]1C(=O)N[C@H]1CSSC[C@@H](C(=O)N[C@@H](Cc2c[nH]c3ccccc23)C(=O)N[C@@H](CC(=O)O)C(=O)N2CCC[C@H]2C(=O)NCC(=O)NCC(=O)NCC(=O)N[C@@H](CCCCNC(=O)c2ccc3c(c2)C(=O)OC32c3ccc(O)cc3Oc3cc(O)ccc32)C(N)=O)NC(=O)[C@H](Cc2ccc(F)cc2)NC(=O)[C@H]([C@@H](C)O)NC(=O)[C@H](Cc2c[nH]c3ccccc23)NC(=O)[C@H](CO)NC(=O)[C@H](CCC(=O)O)NC(=O)[C@H](Cc2c[nH]c3ccccc23)NC(=O)[C@@H]2CCCN2C1=O [Seq019-CF5, Ac-WQPC*PWESWT-Ffe4-C*WDPGGGK(CF5)-NH2] (Ac-WQPCPWESWT[Phe(4-F)]CWDPGGGK(5FAM)-NH2; disulfide 4-12) | 1.02
6 | CC(=O)N[C@@H](Cc1c[nH]c2ccccc12)C(=O)N[C@@H](CCC(N)=O)C(=O)N1CCC[C@H]1C(=O)N[C@H]1CSSC[C@@H](C(=O)N[C@@H](Cc2c[nH]c3ccccc23)C(=O)N[C@@H](CC(=O)O)C(=O)N2CCC[C@H]2C(=O)NCC(=O)NCC(=O)NCC(=O)N[C@@H](CCCCNC(=O)c2ccc3c(c2)C(=O)OC32c3ccc(O)cc3Oc3cc(O)ccc32)C(N)=O)NC(=O)[C@H](Cc2ccc(F)c(F)c2)NC(=O)[C@H]([C@@H](C)O)NC(=O)[C@H](Cc2c[nH]c3ccccc23)NC(=O)[C@H](CO)NC(=O)[C@H](CCC(=O)O)NC(=O)[C@H](Cc2c[nH]c3ccccc23)NC(=O)[C@@H]2CCCN2C1=O [Seq020-CF5, Ac-WQPC*PWESWT-F34fe-C*WDPGGGK(CF5)-NH2] (Ac-WQPCPWESWT[Phe(3,4-F2)]CWDPGGGK(5FAM)-NH2; disulfide 4-12) | 0.7
7 | C[C@@H](O)[C@@H]1NC(=O)[C@H](Cc2c[nH]c3ccccc23)NC(=O)[C@H](CO)NC(=O)[C@H](CCC(=O)O)NC(=O)[C@H](Cc2c[nH]c3ccccc23)NC(=O)[C@@H]2CCCN2C(=O)[C@@H](NC(=O)[C@@H]2CCCN2C(=O)[C@H](CCC(N)=O)NC(=O)[C@H](Cc2c[nH]c3ccccc23)NC(=O)CNC(=O)[C@@H](N)CCCNC(=N)N)CSSC[C@@H](C(=O)N[C@@H](Cc2c[nH]c3ccccc23)C(=O)N[C@@H](CC(=O)O)C(=O)N2CCC[C@H]2C(=O)NCC(=O)NCC(=O)NCC(=O)N[C@@H](CCCCNC(=O)c2ccc3c(c2)C(=O)OC32c3ccc(O)cc3Oc3cc(O)ccc32)C(N)=O)NC(=O)[C@H](Cc2ccccc2)NC1=O [Seq022-CF5] (H-RGWQPCPWESWTFCWDPGGGK(5FAM)-NH2; disulfide 6-14; N-terminus assumed) | 0.28
8 | C[C@@H](O)[C@@H]1NC(=O)[C@H](Cc2c[nH]c3ccccc23)NC(=O)[C@H](CO)NC(=O)[C@H](CCC(=O)O)NC(=O)[C@H](Cc2c[nH]c3ccccc23)NC(=O)[C@@H]2CCCN2C(=O)[C@@H](NC(=O)[C@@H]2CCCN2C(=O)[C@H](CCC(N)=O)NC(=O)[C@H](Cc2c[nH]c3ccccc23)NC(=O)[C@@H](N)CCCNC(=N)N)CSSC[C@@H](C(=O)N[C@@H](Cc2c[nH]c3ccccc23)C(=O)N[C@@H](CC(=O)O)C(=O)N2CCC[C@H]2C(=O)NCC(=O)NCC(=O)NCC(=O)N[C@@H](CCCCNC(=O)c2ccc3c(c2)C(=O)OC32c3ccc(O)cc3Oc3cc(O)ccc32)C(N)=O)NC(=O)[C@H](Cc2ccccc2)NC1=O [Seq023-CF5] (H-RWQPCPWESWTFCWDPGGGK(5FAM)-NH2; disulfide 5-13; N-terminus assumed) | 0.11
